Source: publication PMC4467461, “Small-molecule activation of SERCA2a SUMOylation for the treatment of heart failure” (Nature Communications, 2015)
“Also recorded” adds a separate entry of the source.

Experiments:
[1] = tested on: pressure overload-induced mouse model of HF (TAC); experiment: Invasive P–V loop haemodynamics in TAC heart failure mice; type: in vivo
Procedure: B6C3F1 mice were acquired from Jackson Laboratories. Mice underwent TAC using a supraclavicular construction model as described. TAC or sham surgery was performed in 8∼10-week-old male mice (25∼30 g). Mice were anaesthetized with intraperitoneal ketamine (95 mg kg^−1) and xylaxine (5 mg kg^−1), and ventilated with a tidal volume of 0.1 ml and a respiratory rate of 110 breaths per minute (Harvard Apparatus, MA, USA). A 2- to 3-mm longitudinal cut was made in the proximal portion of the sternum, allowing visualization of the aortic arch. The transverse aortic arch was ligated between the innominate and left common carotid arteries with an overlaying 27-gauge needle. The needle was immediately removed, leaving a discrete region of constriction. Animal sham group underwent a similar procedure without ligation. Only animals with fractional shortening < 50% were determined as being in HF and suitable for further study.
One day after echocardiography, we performed in-vivo haemodynamics. The mice were anaesthetized with an intraperitoneal injection mixture of urethane (1 mg g^−1), etomidate (10 μg g^−1) and morphine (1 μg g^−1), and were then intubated via a tracheotomy and mechanically ventilated at 7 μl g^−1 tidal volume and 120 respirations per minute. A small incision was made in the apex and a French Millar cathether connected a high-fidelity pressure transducer (Scisense, London, ON, Canada) inserted into the LV. Haemodynamic recordings were performed after 5∼10 min of stable HR. The rate of pressure rise (+dP/dt) and maximal pressure, the time constant of isovolumic relaxation and HR were recorded and analysed. To determine the relative effects of the admittance and conductance techniques to contractility change induced by N106 compound infusion, whole haemodynamic function was recorded at both baseline and after administration of N106 compound through the external jugular vein. N106 compound was solubilized in 10% DMSO (Sigma-Aldrich), 10% Tween-80 (Sigma-Aldrich) and saline for in-vivo experiments. N106 or vehicle solutions were continuously infused through the external jugular vein at a rate of 50 μl min^−1 for 2 min in each dose. Whole haemodynamic functions of increasing dose of N106 of each mouse were recorded for ∼4 h. Each dose of N106 solution was infused after back to baseline of heart function.

[2] = tested on: HEK-293 cells co-transfected with SERCA2a and SAE1 mutants (Q312A and V315F); experiment: N106-induced SERCA2a SUMOylation in HEK-293 cells overexpressing SAE1 mutants; type: cell-based
Procedure: Supplementary Figure 4. Effects of overexpressing SAE1 mutants on N106-induced SERCA2a SUMOylation. (a) HEK-293 cells were co-transfected with SERCA2a and SAE1 wild type or SAE1 mutants (Q312A and V315F) for 24 hours. And then the transfecting HEK-293 cells were incubated with different concentration of N106 for 24 hours. The level of SERCA2a SUMOylation was determined by immunoprecipitation and following with Western blotting. (b) The levels of SAE1 overexpression were determined by Western blotting with anti- […]
(1 picture or pasted object on this page, not shown here)

[3] = tested on: NCI-60 human tumour cell lines; experiment: NCI-60 human tumour cell screen (sulforhodamine B); type: cell-based; conditions: single dose 10^-5 M, 48 hours, 60 tumor cell panels incl. MDA-MB-231
From the text: One concern about an agent that enhances SUMOylation is off-target effects including tumour growth. Several studies reported direct involvement of SUMO E1 in the setting of cancer. In patients with hepatocellular carcinoma, UBA2 gene expression was higher and directly correlated with lower survival rate[25]. SUMO E1 was also reported to be an important factor for myc-dependent tumour growth in mice and there is a correlation between low SUMO E1 gene expression and longer metastasis-free survival rate of patients with myc-high breast cancers. Thus, we sought to determine whether N106 would have an effect on cancer cell growth. We performed the NCI-60 human tumour cell screen used by the National Cancer Institute’s Developmental Therapeutics Program (http://dtp.cancer.gov/docs/compare/compare.html). The NCI-60 set includes leukemia, lymphomas and carcinomas of ovarian, renal, breast, prostate, colon, lung and central nervous system origin.
Supplementary Figure 12. NCI 60 cell screening. N106 submitted to the NCI 60 cell screen
has been tested initially at a single high dose of 10^-5 M in 60 different tumor cell panels. 48 hours
after compound treatment, cell density and proliferation was determined by sulforhodamine B

For `COc1ccc(-c2nnc(Nc3nc4c(OC)cccc4s3)o2)cc1` [Compound N106, N-(4-methoxybenzo[d]thiazol-2-yl)-5-(4-methoxyphenyl)-1,3,4-oxadiazol-2-amine], the “+dP/dtmax” value ([1]; 0.1 mg kg^−1 infusion) was 4803.33±91.78 mm Hg s^−1, the HR ([1]; 0.1 mg kg^−1 infusion) was 417.11±4.54 bpm and the Pmax ([1]; 0.1 mg kg^−1 infusion) was 115.11±1.27 mm Hg. The “τ, time constant of isovolumetric relaxation” value (“τ, time constant” below) ([1]; 0.1 mg kg^−1 infusion) was 7.50 ± 0.15 ms, the ESPVR slope ([1]; 0.1 mg kg^−1 infusion via jugular vein) was 9.04±1.20 mm Hg μl^−1 and the “+dP/dtmax” value ([1]; 1 mg kg^−1 infusion) was 5448.83±147.09 mm Hg s^−1. For the same compound, the ESPVR slope ([1]; 1 mg kg^−1 infusion) was 11.26±1.00 mm Hg μl^−1, the HR ([1]; 1 mg kg^−1 infusion) was 422.33±3.79 bpm and the Pmax ([1]; 1 mg kg^−1 infusion) was 123.66±5.28 mm Hg. For the same compound, the “τ, time constant” value ([1]; 1 mg kg^−1 infusion) was 6.40 ± 0.15 ms, the “+dP/dtmax” value ([1]; 10 mg kg^−1 infusion) was 6229.41±103.23 mm Hg s^−1 and the ESPVR slope ([1]; 10 mg kg^−1 infusion) was 20.3±0.41 mm Hg μl^−1. The HR ([1]; 10 mg kg^−1 infusion) was 455.08±5.62 bpm, the Pmax ([1]; 10 mg kg^−1 infusion) was 124.50±4.26 mm Hg and the “τ, time constant” value ([1]; 10 mg kg^−1 infusion) was 6.27 ± 0.13 ms. The “N106-induced increase in SUMOylation of SERCA2a in mutant SAE1-overexpressing cells versus overexpressed WT” value ([2]; 24 h) was “weaker”, the “Dose-dependent increases in SERCA2a SUMOylation in cells overexpressing mutants” value ([2]; different concentration of N106, 24 h) was “not observed” and the “tumour cell growth and proliferation” value [3] was “has not shown any significant oncogenic activity; also recorded: did not induce any tumour cell growth and proliferation”.
